This note sets out measurements from patent publication EP0327365B1, “Improvements in or relating to modified haptens useful as imaging and therapeutic agents” (HYBRITECH INCORPORATED, priority 1988, dated 1989).

One data set has as its system antibody CHA255. The data set can be described thus: Antibody CHA255 binding assay (Centrifree ultrafiltration). More on the design: species or system BALB/c mice. As to conditions: ⁹⁰Y³⁺ or ¹¹¹In³⁺ chelate of DTPA alone. How it is done:
As indicated, the monoclonal antibody CHA255 is specific for the In³⁺-benzyl EDTA complex. The affinity and characterization have been described previously in Nature, 316, 265 (1985). Binding assays were performed to verify the identity of the haptens designated as DB-I to DB-VIII. […] For the ⁹⁰Y³⁺ hapten chelate, in particular, CHA255 binding required the presence of the In-benzyl-EDTA moiety as provided in the compounds of the invention. The labeled DB hapten chelates were combined with antibody CHA255 in PBS (10 mM sodium phosphate, 150 mM sodium chloride, pH 7.4) containing 44 »g/ml of human serum albumin and 0.05% Triton-X-100 detergent. Concentrations of the radiolabeled hapten chelating agent and antibody are 5 nM and 133 nM, respectively. The mixture is vortexed and allowed to stand at room temperature for 15 minutes, after which it is transferred to an Amicon Centrifree™ device, with a NMW limit of 30,000, and centrifuged to separate antibody-bound chelate from free hapten chelate. The species bound to the antibody is retained by the membrane and the free chelate flows through the membrane into the filtrate. The extent of antibody-hapten chelate binding is then determined.

Data set [1] in a line: Aqueous solubility (observation during synthesis). In kind it is physicochemical. The conditions noted are these: metal-free chelating agent, in words.
The subject of data set [2] is T-380 tumors. In words: Hapten biodistribution, premix protocol with bifunctional antibody ECH037.2. In kind it is in vivo, nude mice. More on the design: TOTAL RECOV: unit not given here. As to conditions: for % DOSE PER GRAM, KIDNEY / % DOSE PER GRAM, LIVER / % DOSE PER GRAM, TUMOR / FECES / TOTAL RECOV / URINE / % DOSE PER GRAM, BLOOD / TUMOR/BLOOD: premix with 20 µg ECH037.2; for % DOSE PER GRAM, BLOOD: 111In-labeled hapten i.v.; for TUMOR/BLOOD: ratio; for Percent Injected Dose in Feces: premix protocol (Table VI).

Data set [3] relates to monoclonal antibody CHA255. In words: Determination of hapten-antibody dissociation rates. Format: binding, BALB/c mice. The conditions noted are these: 22°C; indium complex of hapten from CHA255 after 100 fold excess of indium-115 loaded hapten. Put shortly:
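Antibody and ¹¹¹In-traced indium-loaded hapten, each at 160 nM, in PBS pH 7.2 with 1.5 mg/mL human serum albumin, chased with indium-115 hapten at a final 32 μM, at 22±1° C. Free hapten separated by centrifugal ultrafiltration at six timepoints in duplicate over about two half-lives. Rate constants taken from log relative complex concentration versus time.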

For data set [4], the system named is T-380 tumors. In words: Hapten biodistribution, prelocalization protocol with bifunctional antibody ECH037.2. Format: in vivo, nude mice. How it is done: Two protocols were used for examining the biodistribution of the derivatized haptens in the presence of the bifunctional antibody ECH037.2. In a premix protocol, ECH037.2 and the derivatized hapten were combined prior to injection in the animals. In the prelocalization protocol, ECH037.2 was injected into the animals, and the antibody was allowed to prelocalize for 24 hours prior to injection of the radiolabeled hapten.
Biodistribution studies were performed in nude mice carrying subcutaneous implants of the human colon carcinoma cell line T-380 which expresses the carcinoembryonic antigen (CEA) recognized by ECH037.2. Briefly, Balb/C Nu/Nu mice were injected subcutaneously with a minced preparation of T-380 tumor implants and maintained for approximately two weeks, or until the tumor implant had grown to a size of approximately 0.5 grams as described by Hagan, P.L., et al. J. Nuc. Med., 26 1418-1423 (1985). Mice were kept in a sterile environment to prevent complications due to bacterial or viral infections. Biodistributions were performed as described by Halpern, S., et al., Cancer Res. 43, 5347-5355 (1983). Briefly, the radiolabeled haptens were injected intravenously in […], and the pharmacokinetics were evaluated at several time points post-injection. At these times, mice were sacrificed and weighed. Organs were removed, their weight recorded, and each organ was then washed in sterile PBS, pH 7.0, and fixed in formalin solution. Samples of blood, urine and feces also were collected and their weight similarly recorded. The organs, or a portion thereof, were transferred to clean tubes and their radioactive content was determined in a well-type gamma-counter.
Relative radioactive content of each organ was expressed as a percentage of injected dose per organ.
To indium-label the chelating agents for the prelocalization protocol, 5 »l of 0.1 mM chelating agent was combined with X »l of ¹¹¹InCl₃ (in 50 mM HCl) and (x+5) »l of 0.26 M ammonium citrate, pH 6.0. X was calculated by the following equation: X = 200 »Ci/A »Ci/»l [formula] where A is the specific activity of the ¹¹¹InCl₃ solution. The solution was vortexed and allowed to stand at room temperature for 15 minutes, after which incorporation of ¹¹¹In label into the chelating agent was determined as described for the premix protocol. If at least 95 percent of the ¹¹¹In was bound by the chelating agent, the material was then diluted to a final volume of 2 ml with isotonic (1.39 percent, w/v) sodium bicarbonate containing 1 mg/ml normal human serum albumin. This material (100 »l) then was injected into each tail vein of mice which had each been injected 24 hours earlier with 5 »g of ECH037.2 in 100 »l isotonic sodium bicarbonate containing 1 mg/ml normal human serum albumin.

In the case of `O=C(O)CN(CCN(CC(=O)O)CC(=O)O)CCN(CC(=O)O)CC(=O)O` [DTPA, diethylenetriaminepentaacetic acid], the “binding to CHA255” value with antibody CHA255 was “neither ⁹⁰Y³⁺ or ¹¹¹In³⁺ DTPA, alone, bound to CHA255”.
For the compound `CCCCCCCCNC(=S)Nc1ccc(CC(CN(CC(=O)O)CC(=O)O)N(CC(=O)O)CC(=O)O)cc1` (centres unmarked) [OTUBE], the aqueous solubility entry in data set [1] was “Low aqueous solubility”. In the data set on T-380 tumors [2] (24 hours), the “% DOSE PER GRAM, KIDNEY” value is given as 0.5 % DOSE PER GRAM; the “% DOSE PER GRAM, LIVER” value was found to be 0.8 % DOSE PER GRAM; the “% DOSE PER GRAM, TUMOR” value turned out to be 1.1 % DOSE PER GRAM; the FECES is 56.5% of total injected dose. In the data set with T-380 tumors [2] (24 hours), the “TOTAL RECOV” value turned out to be 68.9; the URINE is 8.9% of total injected dose; the “% DOSE PER GRAM, BLOOD” value was 1.1 % DOSE PER GRAM; the TUMOR/BLOOD is 1.00. Moreover, the “amount of hapten in the tumor” value in the data set on T-380 tumors [2] (24 hrs., premix protocol) is given as 1.1 percent injected dose/gram. Moreover, the “Percent Injected Dose in Feces” value in the data set on T-380 tumors [2] (24 hrs.) is 56.5 Percent Injected Dose. In the data set on T-380 tumors [2] (48 hours), the “% DOSE PER GRAM, KIDNEY” value stood at 0.2 % DOSE PER GRAM; the “% DOSE PER GRAM, LIVER” value came out at 0.6 % DOSE PER GRAM; the “% DOSE PER GRAM, TUMOR” value came to 0.7 % DOSE PER GRAM; the FECES is reported as 68.4% of total injected dose. In addition, in the data set on T-380 tumors [2] (48 hours), the “TOTAL RECOV” value came to 81.4; the URINE is on record as 10.9% of total injected dose; the “% DOSE PER GRAM, BLOOD” value was 0.5 % DOSE PER GRAM; the TUMOR/BLOOD is recorded as 1.40. Moreover, the “injected material excreted in the feces” value in the data set with T-380 tumors [2] (48 hrs. post injection, premix protocol) is recorded as 68.4% of the injected material. Further, the “amount of hapten in the tumor” value with T-380 tumors [2] (48 hrs., premix protocol) was 0.7 percent injected dose/gram. For the same compound, the “Percent Injected Dose in Feces” value with T-380 tumors [2] (48 hrs.) is 68.4 Percent Injected Dose.
On to `O=C(O)Cc1ccc(NC(=S)Nc2ccc(CC(CN(CC(=O)O)CC(=O)O)N(CC(=O)O)CC(=O)O)cc2)cc1` (centres unmarked) [PHATUBE], for which the “t1/2, Dissociation Half-Lives” value in data set [3] was determined as 1.19 h. In addition, the fecal excretion entry in the data set on T-380 tumors [4] (5 µg ECH037.2 24 hours earlier, all time points (4, 24, 48 hours), Figures 3-5, in words) is listed as “high degree of fecal excretion”. Also, in the data set on T-380 tumors [4] (Figures 6-8 (4, 24, 48 hours), in words), the tumor/organ values entry is reported as “exceptional”. Besides, in the data set with T-380 tumors [2] (24 hours), the “% DOSE PER GRAM, KIDNEY” value stood at 1.2 % DOSE PER GRAM; the “% DOSE PER GRAM, LIVER” value was 1.7 % DOSE PER GRAM; the “% DOSE PER GRAM, TUMOR” value is recorded as 8.4 % DOSE PER GRAM; the FECES is 22.0% of total injected dose. In addition, in the data set on T-380 tumors [2] (24 hours), the “TOTAL RECOV” value turned out to be 59.7; the URINE was 21.7% of total injected dose; the “% DOSE PER GRAM, BLOOD” value is listed as 6.2 % DOSE PER GRAM; the TUMOR/BLOOD is recorded as 1.35. The “Percent Injected Dose in Feces” value in the data set with T-380 tumors [2] (24 hrs.) amounted to 22.0 Percent Injected Dose. Moreover, in the data set on T-380 tumors [2] (48 hours), the “% DOSE PER GRAM, KIDNEY” value is given as 0.8 % DOSE PER GRAM; the “% DOSE PER GRAM, LIVER” value is on record as 1.1 % DOSE PER GRAM; the “% DOSE PER GRAM, TUMOR” value turned out to be 6.9 % DOSE PER GRAM; the FECES is 34.9% of total injected dose. For the same compound, in the data set on T-380 tumors [2] (48 hours), the “TOTAL RECOV” value is reported as 66.4; the URINE is reported as 22.4% of total injected dose; the “% DOSE PER GRAM, BLOOD” value is given as 3.7 % DOSE PER GRAM; the TUMOR/BLOOD turned out to be 1.86. In the data set on T-380 tumors [2] (48 hrs.), the “Percent Injected Dose in Feces” value was 34.9 Percent Injected Dose.
